# In patent US20030108612A1, “Metallic nanoparticles for inhibition of bacterium growth” (priority 2001, published 2003):
# Assays:
# [1] = tested on: P. aeruginosa, WT, na1B and ΔABM; assay: Overnight culture, cell count by single-cell dark-field microscopy (MIC); assay type: cell-based, Pseudomonas aeruginosa; conditions: antibiotic concentration 3.13, 15.65 or 31.3 μg/mL
# Description: Images were taken of the 5 samples using a dark-field microscope equipped with a Micromax CCD camera. For each of the three strains of P. aeruginosa, 5 samples of the […], 0.2, 2, 20 or 90 pM were examined using dark-field microscopy to count the number of P. aeruginosa cells present. For each sample, 5 pictures were taken at different locations to obtain representative numbers of P. aeruginosa cells present in each sample and the numbers of P. aeruginosa cells counted in the 5 pictures were summed to obtain the total number of P. aeruginosa cells in the 5 pictures. FIG. […] However, at a metallic nanoparticle concentration of 0, 0.2 or 2 pM, there were 200 or more P. aeruginosa cells in the 5 pictures of the culture medium. […] There were green, blue and red metallic nanoparticles, but the most abundant were green. The red nanoparticles appeared to be the brightest under the dark-field microscope because of the larger size.
# After the overnight incubation described above, images were taken using a dark-field microscope equipped with a Micromax CCD camera. For each of the three strains of P. aeruginosa in the presence of azthreonam or gentamicin at a concentration of 0.313, 3.13, 15.65 or 31.3 μg/mL, 4 samples of the culture medium were subjected to single-cell dark-field microscopy. […]
# [2] = tested on: Pseudomonas aeruginosa cells (WT, na1B, ΔABM); assay: Overnight culture, visual inspection of turbidity (MIC); assay type: cell-based; conditions: visual inspection after overnight incubation
# Description: Three strains of Pseudomonas aeruginosa cells (WT, na1B, ΔABM) were used in this working example. “WT” stands for wild type P. aeruginosa, PA04290. The symbol “AABM” stands for a mutant of wild type P. aeruginosa, PA04290, lacking MexA, MaxB and OprM, wherein MexA, MexB and OprM are component genes of an efflux system in wild type P. aeruginosa. The symbol “na1B” stands for a mutant of wild type P. aeruginosa, PA04290, having over expression of the MexA, MexB and OprM genes. These three strains were precultured in autoclaved test tubes overnight. Each test tube contained 3 mL of L-broth medium (1% tryptone, 0.5% yeast extract and 0.5% NaCl, pH 7.2) and was placed inside a shaker at 37° C. and 230 rpm. Then, 20 μL of this pre-cultured cell medium was transferred to each new test tube containing 2 mL of L-broth medium and 0, 2, 20, 40, 80, 100, 200 and 400 μL of a sterile liquid containing 300 pM silver enhanced gold particles (as the metallic nanoparticles used in this example) prepared as described in Example 1. […] Based on visual inspection of test tubes (the presence or absence of turbidity in the medium in each of the test tube) after the overnight incubation, it was determined that the bacterial cells grew at a concentration of the silver coated gold particles of less than 20 pM, but not at a concentration of 20 pM or more. […]
# WT P. aeruginosa = conditions: published literature; cited from earlier work
# [3] = tested on: P. aeruginosa, WT, na1B and ΔABM; assay: Overnight culture, absorbance at 600 nm by UV-vis spectroscopy (MIC); assay type: cell-based, Pseudomonas aeruginosa; conditions: antibiotic concentration 3.13, 15.65 or 31.3 μg/mL, three strains
# Experimental: After the overnight incubation, the absorbance of the […] an UV-vis spectrometer to determine the concentrations of bacterial cells based upon the light scattering of bacterial cells for the three strains of P. aeruginosa, WT, na1B and ΔABM. For each strain of P. aeruginosa cells and each concentration of the silver coated gold particles, the absorbances of 5 samples of the culture medium were measured with the absorbance of each sample measured 3 times and the average absorbance was calculated. The absorbance of ultra-pure water containing the corresponding concentration of silver coated gold particles was subtracted from the average absorbance and the resulting absorbance was plotted in FIG. 1 versus the concentrations of the silver coated gold particles used in the incubation. […] Thus, the MICs of the silver coated gold particles were determined to be about 20 pM for these three strains of P. aeruginosa.
# With a UV-vis spectrometer, the absorbance of each sample of the culture medium was measured at 600 nm after the overnight incubation to determine the P. aeruginosa cell concentration based upon light scattering of cells. For each strain of P. aeruginosa cells, the absorbances of 4 samples of the P. aeruginosa culture medium containing azthreonam or gentamicin at a concentration of 0.313, 3.13, 15.65 or 31.3 μg/mL were measured. […]
Compound,total number of P. aeruginosa cells present in the 5 pictures [1],minimum inhibitory concentrations (MICs) [2],MIC (WT P. aeruginosa),absorbance at 600 nm [3]
gentamicin,almost zero,about 3.13 μg/mL,about 3.13 μg/mL,almost zero
C[C@H]1[C@H](NC(=O)/C(=N\OC(C)(C)C(=O)O)c2csc(N)n2)C(=O)N1S(=O)(=O)O [azthreonam],almost zero,about 3.13 μg/mL,about 3.13 μg/mL,almost zero
